The test system of assay [1] is amphetamine-induced hyperactivity. Briefly: Amphetamine-induced hyperactivity in c57bl6/j mice. Type of assay: in vivo. Conditions: 3 and 10 mg/kg i.p., amphetamine 3 mg/kg s.c. The protocol: To the extent that ethanol-induced hyperactivity is mediated, at least partially, by the dopaminergic system, additional experiments were designed to evaluate whether the compound of formula (A) attenuates the hyperactivity induced by amphetamine, an indirect dopamine agonist.
Locomotor activity was measured with a Hamilton Kinder motor monitor infrared beam apparatus equipped with a SmartFrame cage rack throughout which basic movements were recorded. These experiments were conducted using a between subject design. Sessions started when 8-10-week old c57bl6/j mice were located in the test cages and they lasted for 180 min. Amphetamine (3 mg/kg, s.c.) was administered 60 min after the beginning of the session. The compound of formula (A) (1,3,10 mg/kg, i.p.) or vehicle was administered 15 min prior to amphetamine and locomotor activity was measured for an additional 120 min. The average of basic movements recorded for 60 min after amphetamine was calculated for each animal. Data were analyzed with one-way analysis of variance (ANOVA) using Graph Pad.

Another assay deals with T1, hY2 (Homo sapiens, UniProt P49146).
T1 construct: KAN-Ts endogenously expressing Y2 receptors were used; endogenous in cells; host or cells: KAN-Ts cells stably expressing chimeric G proteins
T1 sequence (P49146 1-381): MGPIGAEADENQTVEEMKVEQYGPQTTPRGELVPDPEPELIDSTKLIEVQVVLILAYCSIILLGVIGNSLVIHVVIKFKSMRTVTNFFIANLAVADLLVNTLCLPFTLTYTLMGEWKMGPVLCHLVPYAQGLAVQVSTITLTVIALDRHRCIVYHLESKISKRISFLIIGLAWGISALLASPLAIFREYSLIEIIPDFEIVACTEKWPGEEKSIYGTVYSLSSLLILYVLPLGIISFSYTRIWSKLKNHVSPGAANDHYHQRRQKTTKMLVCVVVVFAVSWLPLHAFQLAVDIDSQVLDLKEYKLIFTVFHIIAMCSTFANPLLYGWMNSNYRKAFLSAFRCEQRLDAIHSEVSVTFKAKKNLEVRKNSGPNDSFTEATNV
The assay can be described thus: Ca2+ mobilization assay (FLIPR) in KAN-Ts cells. Type of assay: cell-based. As to conditions: KANT-S cells, inhibition of PYY stimulated Ca2+ increase, read-out: hY2 pKB (converted). The protocol: The assay was performed using the fluorimetric imaging plate reader (FLIPR) format as described in Dautzenberg, F. M., Biochemical Pharmacology 2005, 69, 1493.
KAN-Ts cells stably expressing chimeric G proteins were seeded at a density of 100,000 cells into poly-d-lysine coated 384-well blackwall, clear-bottom microtiter plates (Corning, N.Y.). One day later, the medium was removed and 50 μl loading medium DMEM high glucose, without serum, supplemented with 10 mM HEPES-acid, 0.1% BSA, 5 mM probenecid and 2 μM Fluo-3AM was added. Cells were loaded for 1 h at 37° C., washed twice with 50 μl assay buffer (5 mM HEPES-acid, 140 mM NaCl, 1 mM MgCl2, 5 mM KCl, 10 mM glucose) and then 30 μl assay buffer was added. Cells were further pre-incubated at room temperature before adding agonists or agonists plus antagonists in 20 μl assay buffer and then measured on a T-channel fluorometric imaging plate reader (FLIPR, Molecular Devices, Sunnyvale, Calif.).
Antagonistic potency values were converted to apparent pKB values using a modified Cheng-Prusoff correction. Apparent pKB=−log IC50/1+[conc agonist/EC50]. Data below are expressed as mean±S.E.M.
The in vitro antagonistic properties of the compound of formula (A) were confirmed using Ca^2+ measurement.
On the technique in general: A change in cytosolic calcium serves as a functional read-out for many receptors and channels.

Assay [2] concerns panel of 50 receptors, ion channels and transporters. The assay can be described thus: CEREP panel of 50 receptors, ion channels and transporters. Type of assay: binding. As to conditions: concentrations up to 1 μM. The protocol: The selectivity of the compound of formula (A) was further evaluated in a large variety of ion-channels, transporters and receptor-binding assays including the Y1 receptor subtype. These assays were performed by CEREP (Celles L'Evescault, France; www.cere.com<http//www.cerea.com>). Selectivity vs the Y5 receptor subtype was evaluated as described in Bonaventure, P., D. Nepomuceno, C. Mazur, B. Lord, D. A. Rudolph, J. A. Jablonowski, N. I. Carruthers and T. W. Lovenberg, J Pharmacol Exp Ther. 2004, 308, 1130.
The compound of formula (A) was assayed by binding in a panel of 50 receptors, ion channels and transporters assays (CEREP) including adenosine (A1,A2A,A3), adrenergic (α1, α2, β1), angiotensin (AT1), dopamine (D1, D2), bradykinin (B2), cholecystokinin (CCKA), galanin (GAL2), melatonin ML1), muscarinic (M1, M2, M3), neurotensin (NTS), neurokinin (NK2, NK3), NPY (Y1, Y2) opiate (m, k, d), serotonin (5-HT1A, 5-HT1B, 5-HT2A, 5-HT3, 5-HT5A, 5-HT6, 5-HT7), somatostatin, vasopressin (V1a), norepinephrine transporter, dopamine transporter and ion channels (sodium, calcium, potassium and chloride).

Assay [3] concerns ethanol-induced hyperactivity. The assay can be described thus: Ethanol-induced hyperactivity (locomotor activity) in c57bl6/j mice. The format is in vivo. Conditions: 10 mg/kg i.p. From the text:
C57bl6/j mice readily self-administer ethanol and these mice are sensitive to the stimulant effects of alcohol. NPY immunoreactivity is reduced in these mice. In addition, mice lacking NPY drink more ethanol than wild type mice; whereas, mice over-expressing NPY have reduced preference for ethanol. Experiments were designed to test the hypothesis that selective blockade of Y2 receptors by the compound of formula (A) decreases ethanol stimulant effects presumable by enhancing NPY function in the brain.
Locomotor activity was measured with a Hamilton Kinder motor monitor infrared beam apparatus equipped with a SmartFrame cage rack throughout which basic movements were recorded. Experiments assessed the effects of the compound of formula (A) on ethanol-induced hyperactivity in 8-10-week old c57bl6/j mice and were conducted using a between subject design. Vehicle (10 ml/kg, i.p.) or the compound of formula (A) (10 mg/kg, i.p.) was administered 15 min prior to the beginning of the session. Thereafter, animals received an acute injection of either vehicle (10 ml/kg, i.p.) or ethanol (1 g/kg, i.p), then they were immediately placed in the apparatus and locomotor activity was evaluated for 15 min. Data were analyzed with two-way repeated ANOVA using Graph Pad.

For the compound `CCN(CC)C(=O)C(c1ccccc1)N1CCN(c2ccc(NC(=O)c3ccccc3-c3cccnc3)cc2F)CC1` (racemic) [Cmpd (A), N-{4-[4-(Diethylcarbamoyl-phenyl-methyl)-piperazin-1-yl]-3-fluoro-phenyl}-2-pyridin-3-yl-benzamide], in assay [1], the “effect on amphetamine-induced hyperactivity” value is reported as “blocked amphetamine-induced hyperactivity”. For the same compound, at hY2, the Kb is 2.69 nM. In assay [2], the “inhibition against each receptor of the panel (except NPY Y2)” value is “less than 50%”. Moreover, the “effect on ethanol-induced hyperactivity” value in assay [3] (15 min before ethanol 1 g/kg i.p.) is listed as “significantly reduced ethanol hyperactivity”. The “effect on locomotor activity by itself” value in assay [3] (no ethanol) is on record as “did not change locomotor activity by itself”.

The values are drawn from patent publication US8338426B2, “Piperazinyl derivatives useful as modulators of the neuropeptide Y2 receptor” (Janssen Pharmaceutica NV, priority 2007, dated 2012).
